Structures can show the parent of a compound that is named as a salt.

One test addresses T1, Human Polymorphonuclear Leukocyte Elastase (Homo sapiens, UniProt P08246).
T1 sequence (P08246 30-267): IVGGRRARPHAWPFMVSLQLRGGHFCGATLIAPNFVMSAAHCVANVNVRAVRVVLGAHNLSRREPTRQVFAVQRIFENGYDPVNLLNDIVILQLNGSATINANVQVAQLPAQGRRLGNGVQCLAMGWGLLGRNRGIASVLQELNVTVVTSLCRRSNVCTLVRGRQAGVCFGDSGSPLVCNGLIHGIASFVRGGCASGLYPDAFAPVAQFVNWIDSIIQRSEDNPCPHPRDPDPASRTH
The test is described as follows: Inhibition of human polymorphonuclear leukocyte elastase via hydrolysis of Boc-AAPAN or Boc-AAPVN. To be noted: pH 7.5, Table I; second order rate constant for inactivation of the enzyme; read-out: Kobs /[I]. The format is biochemical. As for the experimental part: Enzyme Assays for the Inhibition of Human Polymorphonuclear Leukocyte Elastase Via Hydrolysis of N-t-Boc-alanyl-alanyl-prolylalanine-p-nitroanilide (Boc-AAPAN) or […] (Boc-AAPVN) Reagent:
0.05M TES (N-tris[hydroxymethyl]methyl-2-amino-ethanesulfonic acid) Buffer, pH 7.5.
0.2 mM Boc-AAPAN or Boc-AAPVN.
To prepare substrate, the solid was first dissolved in 10.0 ml DMSO. Buffer at pH 7.5 was then added to a final volume of 100 ml.
Crude extract of human polymorphonuclear leukocytes (PMN) containing elastase activity.
Inhibitors (azetidinones) to be tested dissolved in DMSO just before use.
To 1.0 ml of 0.2 mM Boc-AAPAN in a cuvette, 0.01-0.1 ml of DMSO with or without inhibitor was added. After mixing, a measurement was taken at 410 mμ to detect any spontaneous hydrolysis due to presence of test compound. 0.05 Milliliters of PMN extract was then added and the ΔOD/min at 410 mμ was measured and recorded. Beckman model 35 spectrophotometer was used.
Results in Tables I to III were reported as ID50, effective dosage in micrograms per milliliter (μg/ml) for 50% inhibition of the enzyme activity 2 minutes after zero time.
Results were also expressed as Ki, the micromolar concentration of the inhibitor (μM) giving 50% of the control enzyme activity; or as ^k obs/I which is the second order rate constant in per mole per second for inactivation of the enzyme.
The elastase activity in the crude PMN extract may vary from one preparation to another. A control of each new batch is run, and the volume added in the assay procedure is adjusted according to activity.
On to `CCC[C@@H](NC(=O)N1C(=O)C(CC)(CC)[C@@H]1Oc1ccc(CN(CC)CCSC)cc1)c1ccc(C)cc1` [R4=Et; R5=CH2 CH2 SMe; R6=H], for which the kinact/KI stood at 690000 M⁻¹ s⁻¹.

As for `CCC[C@@H](NC(=O)N1C(=O)C(CC)(CC)[C@@H]1Oc1ccc(C(COC)N(C)CC)cc1)c1ccc(C)cc1` (mixture of isomers) [R4=Me; R5=Et; R6=CH2 OMe, 3,3-Diethyl-1-[(R)-α-(n-propyl)-4-(methyl)benzylaminocarbonyl]-4-(S)-[4-{1-(RS)-(N-ethyl-N-(methyl)amino)2-methoxyethyl}-phenoxy]azetidin-2-one], the kinact/KI is 1e+06 M⁻¹ s⁻¹.

For the compound `CCC[C@@H](NC(=O)N1C(=O)C(CC)(CC)[C@@H]1Oc1ccc(CN(C)CCN(C)C(=O)N(C)C)cc1)c1ccc(C)cc1` [R4=Me; R5=CH2 CH2 N(Me)CONMe2; R6=H], the kinact/KI is 850000 M⁻¹ s⁻¹.

On to `CCC[C@@H](NC(=O)N1C(=O)C(CC)(CC)[C@@H]1Oc1ccc(Cn2ccnc2CC)cc1)c1ccc(C)cc1` [R4+R5=--CHCHNCEt--; R6=H], for which the kinact/KI was 2.25e+06 M⁻¹ s⁻¹.

For `CCC[C@@H](NC(=O)N1C(=O)C(CC)(CC)[C@@H]1Oc1ccc(Cn2ccnc2C)cc1)c1ccc(C)cc1` [R4+R5=--CHCHNCMe--; R6=H], the kinact/KI came out at 1.4e+06 M⁻¹ s⁻¹.

As to `CCC[C@@H](NC(=O)N1C(=O)C(CC)(CC)[C@@H]1Oc1ccc(CN(C)CC2CCCCO2)cc1)c1ccc(C)cc1` (stereo partly shown), the kinact/KI turned out to be 900000 M⁻¹ s⁻¹.

For `CCC[C@@H](NC(=O)N1C(=O)C(CC)(CC)[C@@H]1Oc1ccc(CN(C)CCOC)cc1)c1ccc(C)cc1` [R4=Me; R5=CH2 CH2 OMe; R6=H, (4S)-3,3-Diethyl-1-[(R)-α-n-propyl-(4-methyl)benzylaminocarbonyl]-4-[(4-(2-methoxyethyl)methylaminomethyl)phenoxyl]azetidin-2-one], the kinact/KI came out at 440000 M⁻¹ s⁻¹.

In the case of `CCC[C@@H](NC(=O)N1C(=O)C(CC)(CC)[C@@H]1Oc1ccc(CN(C)CCC(=O)O)cc1)c1ccc(C)cc1` [R4=Me; R5=CH2 CH2 CO2 H--TFA; R6=H], the kinact/KI worked out at 440000 M⁻¹ s⁻¹.

For the compound `CCC[C@@H](NC(=O)N1C(=O)C(CC)(CC)[C@@H]1Oc1ccc(CNC(=O)CCN(CC)CC)cc1)c1ccc(C)cc1` [R4=H; R5=COCH2 CH2 N Et2; R6=H], the kinact/KI was 850000 M⁻¹ s⁻¹.

Turning to `CCC[C@@H](NC(=O)N1C(=O)C(CC)(CC)[C@@H]1Oc1ccc(CN2CCC(O)C2)cc1)c1ccc(C)cc1` (stereo partly shown) [R4+R5=--CH2 CH2 CH(OH)CH2 --; R6=H], the kinact/KI was determined as 1.2e+06 M⁻¹ s⁻¹.

Take `CCC[C@@H](NC(=O)N1C(=O)C(CC)(CC)[C@@H]1Oc1ccc(CN2CCN(C(=O)C(C)C)CC2)cc1)c1ccc(C)cc1`: the kinact/KI was determined as 1.6e+06 M⁻¹ s⁻¹.

In the case of `CCC[C@@H](NC(=O)N1C(=O)C(CC)(CC)[C@@H]1Oc1ccc([C@H](C)N(C)CCOC)cc1)c1ccc(C)cc1` [R4=Me; R5=CH2 CH2 OMe; R6=(S)--Me, (4S)-3,3-Diethyl-4-{(S)-4-[1-((2-methoxyethyl)methylamino)ethyl]phenoxy}-1-[(R)-α-n-propyl-(4-methyl)benzylaminocarbonyl]azetidin-2-one], the kinact/KI is 515000 M⁻¹ s⁻¹.

Turning to `CCC[C@@H](NC(=O)N1C(=O)C(CC)(CC)[C@@H]1Oc1ccc(CN(CC)CCOC)cc1)c1ccc(C)cc1` [R4=Et; R5=CH2 CH2 OMe; R6=H, (4S)-3,3-Diethyl-1-[(R)-α-n-propyl-(4-methyl)benzyl-aminocarbonyl]-4-[(4-(2-methoxyethyl)ethylamino-methyl)phenoxy]azetidin-2-one], the kinact/KI came to 565000 M⁻¹ s⁻¹.

Regarding `CCC[C@@H](NC(=O)N1C(=O)C(CC)(CC)[C@@H]1Oc1ccc(CN(C)C(C)C)cc1)c1ccc(C)cc1` [R4=Me; R5=i-Pr; R6=H], the kinact/KI was 850000 M⁻¹ s⁻¹.

For the compound `CCC[C@@H](NC(=O)N1C(=O)C(CC)(CC)[C@@H]1Oc1ccc(C(C)N2CCOCC2)cc1)c1ccc(C)cc1` (stereo partly shown) [R4+R5=--CH2 CH2 OCH2 CH2 --; R6=Me], the kinact/KI is 460000 M⁻¹ s⁻¹.

Consider `CCC[C@@H](NC(=O)N1C(=O)C(CC)(CC)[C@@H]1Oc1ccc(C(COC)N(C)C(C)C)cc1)c1ccc(C)cc1` (stereo partly shown) [R4=Me; R5=i-Pr; R6=CH2 OMe], for which the kinact/KI is 800000 M⁻¹ s⁻¹.

`CCC[C@@H](NC(=O)N1C(=O)C(CC)(CC)[C@@H]1Oc1ccc(CN(CCOC)CCOC)cc1)c1ccc(C)cc1` [R4=CH2 CH2 OMe; R5=CH2 CH2 OMe; R6=H]: the kinact/KI is 820000 M⁻¹ s⁻¹.

For the compound `CCC[C@@H](NC(=O)N1C(=O)C(CC)(CC)[C@@H]1Oc1ccc(CN(C)C(C)COC)cc1)c1ccc(C)cc1` (stereo partly shown) [R4=Me; R5=CH(Me)CH2 OMe; R6=H], the kinact/KI was found to be 1.22e+06 M⁻¹ s⁻¹.

`CCC[C@@H](NC(=O)N1C(=O)C(CC)(CC)[C@@H]1Oc1ccc(CN(C)CCSCC)cc1)c1ccc(C)cc1` [R4=Me; R5=CH2 CH2 SEt; R6=H, (4S)-3,3-diethyl-1-[(R)-α-n-propyl-(4-methyl)benzylaminocarbonyl]-4-[(4-((2-thioethyl)ethyl)methylaminomethyl)phenoxy]azetidin-2-one]: the kinact/KI was 1.05e+06 M⁻¹ s⁻¹.

Take `CCC[C@@H](NC(=O)N1C(=O)C(CC)(CC)[C@@H]1Oc1ccc(CN(C)CCN(C)C(=O)OC)cc1)c1ccc(C)cc1` [R4=Me; R5=CH2 CH2 N(Me)COOMe; R6=H]: the kinact/KI was found to be 1.1e+06 M⁻¹ s⁻¹.

Consider `CCC[C@@H](NC(=O)N1C(=O)C(CC)(CC)[C@@H]1Oc1ccc(CN(C)CC(=O)N(CCC)CCC)cc1)c1ccc(C)cc1` [R4=Me; R5=CH2 CON(n-Pr)2; R6=H], for which the kinact/KI was determined as 910000 M⁻¹ s⁻¹.

For `CCC[C@@H](NC(=O)N1C(=O)C(CC)(CC)[C@@H]1Oc1ccc(CN(CCOC)C(C)C)cc1)c1ccc(C)cc1` [R4=i-Pr; R5=CH2 CH2 OMe; R6=H], the kinact/KI was 500000 M⁻¹ s⁻¹.

With `CCC[C@@H](NC(=O)N1C(=O)C(CC)(CC)[C@@H]1Oc1ccc(CN2CCC[C@H]2COC)cc1)c1ccc(C)cc1`, the kinact/KI was found to be 1.55e+06 M⁻¹ s⁻¹.

Turning to `CCC[C@@H](NC(=O)N1C(=O)C(CC)(CC)[C@@H]1Oc1ccc(CNC(=O)CN(C)C)cc1)c1ccc(C)cc1` [R4=H; R5=COCH2 NMe2; R6=H, (4S)-3,3-Diethyl-1-[(R)-α-(n-propyl)-4-(methyl)benzyl-aminocarbonyl]-4-[(4-((N,N-dimethyl)aminomethylcarbonyl)aminomethyl)phenoxy]azetidin-2-one], the kinact/KI amounted to 800000 M⁻¹ s⁻¹.

Take `CCC[C@@H](NC(=O)N1C(=O)C(CC)(CC)[C@@H]1Oc1ccc(C(C)N2CCC(OC)C2)cc1)c1ccc(C)cc1` (stereo partly shown) [R4+R5=--CH2 CH2 CH(OMe)CH2 --; R6=Me]: the kinact/KI is 1e+06 M⁻¹ s⁻¹.

In the case of `CCC[C@@H](NC(=O)N1C(=O)C(CC)(CC)[C@@H]1Oc1ccc(CN(C)CCS(=O)(=O)CC)cc1)c1ccc(C)cc1` [R4=Me; R5=CH2 CH2 SO2 Et; R6=H, (4S)-3,3-Diethyl-1-[(R)-α-n-propyl-(4-methyl)benzylaminocarbonyl]-4-[(4-((2-thioethyl)ethyl)methylaminomethyl)phenoxy]azetidin-2-one. S-dioxide.], the kinact/KI worked out at 1.5e+06 M⁻¹ s⁻¹.

Consider `CCC[C@@H](NC(=O)N1C(=O)C(CC)(CC)[C@@H]1Oc1ccc(CN2CC(C)NC(C)C2)cc1)c1ccc(C)cc1` (stereo partly shown) [R4+R5=--CH2 CHMeNCHMeCH2 --; R6=H], for which the kinact/KI amounted to 980000 M⁻¹ s⁻¹.

`CCC[C@@H](NC(=O)N1C(=O)C(CC)(CC)[C@@H]1Oc1ccc(CN(C)CCN(C)C)cc1)c1ccc(C)cc1` [R4=Me; R5=CH2 CH2 NMe2; R6=H]: the kinact/KI came out at 850000 M⁻¹ s⁻¹.

The same test, now with this note: pH 7.5, Table II; second order rate constant for inactivation of the enzyme; read-out: Kobs /[I].
With `CCC[C@@H](NC(=O)N1C(=O)C(CC)(CC)[C@@H]1Oc1ccc(CCN(C)C)cc1)c1ccc(C)cc1` [R4=Me; R5=Me; n=2, (4S)-3,3-Diethyl-1-[(R)-α-n-propyl-(4-methyl)benzylaminocarbonyl]-4-[(4-(2-dimethylamino)ethyl)phenoxy]azetidin-2-one], the kinact/KI came out at 1.13e+06 M⁻¹ s⁻¹.

On to `CCC[C@@H](NC(=O)N1C(=O)C(CC)(CC)[C@@H]1Oc1ccc(CCCCN(C)Cc2ccccc2)cc1)c1ccc(C)cc1` [R4=Me; R5=Bn; n=4], for which the kinact/KI came to 640000 M⁻¹ s⁻¹.

Staying with this test, now noted: pH 7.5, Table III; second order rate constant for inactivation of the enzyme; read-out: Kobs /[I].
For `CCC[C@@H](NC(=O)N1C(=O)C(CC)(CC)[C@@H]1Oc1cc(C)c(CN(C)CCOC)c(C)c1)c1ccc(C)cc1`, the kinact/KI turned out to be 300000 M⁻¹ s⁻¹.

As for `CCC[C@@H](NC(=O)N1C(=O)C(CC)(CC)[C@@H]1Oc1ccc(CN(CC)CCOC)c(C)c1)c1ccc(C)cc1`, the kinact/KI is 450000 M⁻¹ s⁻¹.

As for `CCC[C@@H](NC(=O)N1C(=O)C(CC)(CC)[C@@H]1Oc1ccc(CN(CC)CCOCCOC)c(OC)c1)c1ccc(C)cc1`, the kinact/KI turned out to be 1.7e+06 M⁻¹ s⁻¹.

Consider `CCC[C@@H](NC(=O)N1C(=O)C(CC)(CC)[C@@H]1Oc1ccc(CN(CC)CCOC)c(Cl)c1)c1ccc(C)cc1`, for which the kinact/KI was 550000 M⁻¹ s⁻¹.

For the compound `CCC[C@@H](NC(=O)N1C(=O)C(CC)(CC)[C@@H]1Oc1ccc(CN(C)CCOC)c(Cl)c1)c1ccc(C)cc1`, the kinact/KI is 1e+06 M⁻¹ s⁻¹.

Regarding `CCC[C@@H](NC(=O)N1C(=O)C(CC)(CC)[C@@H]1Oc1ccc(CN(C)CCOC)cc1)c1ccc(OC)cc1`, the kinact/KI was found to be 900000 M⁻¹ s⁻¹.

Take `CCC[C@@H](NC(=O)N1C(=O)C(CC)(CC)[C@@H]1Oc1ccc(CN(CC)CCOC)cc1)c1ccc(OC)cc1`: the kinact/KI came out at 1e+06 M⁻¹ s⁻¹.

The record behind these values is patent US5952321A, “Substituted azetidinones as anti-inflammatory and antidegenerative agents” (Merck & Co., Inc., priority 1996, dated 1999).
